Reference: the NIST ThermoML archive (doi:10.1016/j.jct.2012.01.008)

Assay: xn = mol fraction of the nth substance listed
Details: Liquid, Vibrating tube method

CCC[N+]1(C)CCCCC1.O=S(=O)([N-]S(=O)(=O)C(F)(F)F)C(F)(F)F + COc1ccccc1
mass density [kg/m3]
Details	100 kPa	10000 kPa	15000 kPa	20000 kPa	25000 kPa	30000 kPa	35000 kPa	40000 kPa	45000 kPa	50000 kPa
298.15 K, x2 = 0.1015	1393.9	1400.6	1403.7	1406.9	1409.8	1412.7	1415.3	1418.1	1420.9	1423.5
298.15 K, x2 = 0.201	1376.9	1383.6	1386.7	1389.9	1392.8	1395.6	1398.2	1401	1403.8	1406.4
298.15 K, x2 = 0.3001	1356.9	1363.7	1366.6	1369.8	1372.7	1375.6	1378.4	1381.2	1383.9	1386.5
298.15 K, x2 = 0.4102	1330.3	1337.1	1340.2	1343.3	1346.2	1349.1	1351.9	1354.7	1357.6	1360.2
298.15 K, x2 = 0.5003	1304.5	1311.4	1314.4	1317.5	1320.4	1323.3	1326.2	1329.1	1331.9	1334.5
298.15 K, x2 = 0.6003	1269.5	1276.3	1279.4	1282.6	1285.5	1288.4	1291.3	1294	1296.7	1299.3
298.15 K, x2 = 0.7003	1225.7	1232.4	1235.5	1238.6	1241.5	1244.4	1247.3	1250.1	1252.8	1255.3
298.15 K, x2 = 0.8	1169.1	1175.8	1178.9	1182	1184.8	1187.7	1190.6	1193.3	1196.1	1198.6
298.15 K, x2 = 0.9	1093.1	1099.7	1102.6	1105.7	1108.4	1111.3	1114.1	1117	1119.8	1122.2
318.15 K, x2 = 0.1015	1377.3	1384.1	1387.6	1390.6	1393.7	1396.8	1399.9	1402.8	1405.7	1408.4
318.15 K, x2 = 0.201	1360	1366.8	1370.3	1373.3	1376.4	1379.5	1382.6	1385.4	1388.3	1391
318.15 K, x2 = 0.3001	1339.7	1346.6	1350	1353	1356.1	1359.2	1362.3	1365.2	1368.1	1370.8
318.15 K, x2 = 0.4102	1312.9	1319.9	1323.3	1326.4	1329.6	1332.7	1335.9	1338.8	1341.7	1344.5
318.15 K, x2 = 0.5003	1286.7	1293.8	1297.3	1300.4	1303.6	1306.7	1309.9	1312.8	1315.7	1318.5
318.15 K, x2 = 0.6003	1251.6	1258.8	1262.2	1265.4	1268.7	1271.8	1275	1277.9	1280.8	1283.5
318.15 K, x2 = 0.7003	1207.7	1215	1218.3	1221.5	1224.8	1227.8	1231	1233.9	1236.8	1239.5
318.15 K, x2 = 0.8	1150.9	1158.4	1161.7	1164.8	1168.1	1171.1	1174.2	1177.1	1180.1	1182.9
318.15 K, x2 = 0.9	1074.5	1082	1085.2	1088.4	1091.8	1094.8	1098	1100.8	1103.7	1106.6
348.15 K, x2 = 0.1015	1351.4	1358.7	1362.3	1366	1369.4	1372.6	1375.9	1378.9	1382.1	1384.8
348.15 K, x2 = 0.201	1333.7	1341.1	1344.8	1348.5	1352	1355.3	1358.4	1361.5	1364.6	1367.5
348.15 K, x2 = 0.3001	1313	1320.5	1324.2	1328	1331.5	1334.8	1338.1	1341.2	1344.4	1347.3
348.15 K, x2 = 0.4102	1285.7	1293.4	1297.2	1301	1304.6	1308	1311.3	1314.5	1317.7	1320.7
348.15 K, x2 = 0.5003	1259.5	1267.3	1271	1274.7	1278.4	1281.8	1285.2	1288.4	1291.6	1294.6
348.15 K, x2 = 0.6003	1224.1	1232.1	1235.9	1239.6	1243.2	1246.6	1250.1	1253.3	1256.5	1259.6
348.15 K, x2 = 0.7003	1179.9	1188.1	1191.9	1195.6	1199.3	1202.6	1206.1	1209.4	1212.7	1215.8
348.15 K, x2 = 0.8	1122.6	1130.9	1134.8	1138.7	1142.5	1145.9	1149.4	1152.8	1156	1159.2
348.15 K, x2 = 0.9	1046	1054.5	1058.3	1062.2	1066	1069.5	1073	1076.5	1079.7	1083
